Data on 54 compounds can be found in patent US8697694B2, “Substituted pyridine and pyrimidine derivatives and their use in treating viral infections” (priority 2008, dated 2014).

For one assay, the system named is HCV replicon cells. In words: Cell-based HCV replicon assay (replicon RNA level by real time PCR, Taqman). To be noted: HCV replicon cells, harvested day 3, replicon RNA by real time PCR; reported as range class; read-out: EC90 (μM) range. The gist of the method: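 HCV replicon cells treated 3 days with 10 serial 2-fold compound dilutions (top 25 μM to 1 μM; 0.5% DMSO, 10% FBS). Replicon RNA quantified by multiplex Taqman RT-PCR (NS5B amplicon, GAPDH control); EC50 and EC90 = concentrations giving ΔCT of 1 and 3.2 over baseline.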
(In antiviral work, replicon cells carry a viral genome segment that copies itself.)
What is called EC90 is the point of the concentration-response curve where the effect stands at 90%. On to `COc1cc2cc(-c3c(Cl)nc(N(C)C)nc3N[C@@H]3C[C@H](CO)[C@@H](O)[C@H]3O)oc2c(C)n1` [Example 13], for which the 90% effect concentration (EC90) was greater than 5 µM.

Staying with this assay, now noted: Hepatitis C virus, 72 h, HCV replicon cells, harvested day 3, replicon RNA by real time PCR; given as number; read-out: EC90 (μM) range.
For the compound `COCCNc1nc(C)c(-c2cc3cc(OCC4CC4)ncc3o2)c(N[C@@H]2C[C@H](CO)[C@@H](O)[C@H]2O)n1` [Example 59], the EC90 was 2 µM. Still for that read-out and setting: then `CNC(=O)OC[C@H]1C[C@@H](Nc2nc(NCC(F)(F)F)nc(C)c2-c2nc3ccccc3s2)[C@H](O)[C@@H]1O` [Example 66], with 0.85 µM; and `CCOc1cc2cc(-c3c(C)nc(NCC(F)(F)F)nc3N[C@@H]3C[C@H](CO)[C@@H](O)[C@H]3O)oc2c(C)n1` [Example 29], with 0.1 µM.

Staying with this assay, now noted: Hepatitis C virus, 72 h, HCV replicon cells, harvested day 3, replicon RNA by real time PCR; reported as range class; read-out: EC90 (μM) range.
For `Cc1nc(NCCO)nc(N[C@@H]2C[C@H](CO)[C@@H](O)[C@H]2O)c1-c1nc2ccccc2s1` [Example 210], the EC90 was less than 0.5 µM. The same measure, in the same setting: as for `Nc1nc(Cl)c(-c2ncco2)c(N[C@@H]2C[C@H](CO)[C@@H](O)[C@H]2O)n1` [Example 106], the figure is greater than 5 µM; as for `COc1cc2cc(-c3c(Cl)nc(N)nc3N[C@@H]3C[C@H](CO)[C@@H](O)[C@H]3O)oc2cn1` [Example 11], less than 0.5 µM.

Regarding `CC1(C)O[C@@H]2[C@@H](CO)C[C@@H](Nc3nc(N)nc(Cl)c3-c3nc4c(F)cc(F)cc4s3)[C@@H]2O1` [Example 186], the 90% effect concentration (EC90) lay within 0.5 to 5 µM. On to `COCCNc1nc(C)c(-c2nc3ccccc3s2)c(N[C@@H]2C[C@H](CO)[C@@H](O)[C@H]2O)n1` [Example 205], for which the concentration for an effect of 90% (EC90) is less than 0.5 µM.

As for `CNc1nc(Cl)c(-c2nc3ccccc3s2)c(N[C@@H]2C[C@H](CO)[C@@H](O)[C@H]2O)n1` [Example 403], the 90% effect concentration (EC90) was less than 0.5 µM. On the same count and under the same terms, as for `CCc1cc2cc(-c3c(Cl)nc(N)nc3N[C@@H]3C[C@H](CO)[C@@H](O)[C@H]3O)oc2cn1` [Example 406], the figure is less than 0.5 µM; as for `COc1cc2cc(-c3c(Cl)nc(N)nc3N[C@@H]3C[C@H](COC(=O)C(F)(F)F)[C@@H](O)[C@H]3O)oc2cn1` [Example 10], less than 0.5 µM; as for `CCc1nc(N(C)C)nc(N[C@@H]2C[C@H](CO)[C@@H](O)[C@H]2O)c1-c1nc2ccccc2s1` [Example 314], greater than 5 µM. Still for that read-out and setting: as for `CNc1nc(Cl)c(-c2cc3cc(OC)nc(C)c3o2)c(N[C@@H]2C[C@H](CO)[C@@H](O)[C@H]2O)n1` [Example 15], the figure is less than 0.5 µM.

The assay is the same for the next values; noted with them: Hepatitis C virus, 72 h, HCV replicon cells, harvested on day 3, replicon RNA by real time PCR; calculated EC90 reported as range class; read-out: EC90 (μM) range.
For the compound `Cc1nc(NCC2CCCCC2)nc(N[C@@H]2C[C@H](CO)[C@@H](O)[C@H]2O)c1-c1nc2ccccc2s1` [Example 323], the EC90 was less than 0.5 µM. With `Cc1cc(C)cc(CNc2nc(C)c(-c3nc4ccccc4s3)c(N[C@@H]3C[C@H](CO)[C@H]4OC(C)(C)O[C@H]43)n2)c1` [Example 712], the EC90 was less than 0.5 µM. With `CC(C)Nc1nc(Cl)c(-c2nc3ccccc3s2)c(N[C@@H]2C[C@H](CO)[C@@H](O)[C@H]2O)n1` [Example 426], the EC90 was less than 0.5 µM. For the compound `Cc1nc(NCc2nccs2)nc(N[C@@H]2C[C@H](CO)[C@@H](O)[C@H]2O)c1-c1nc2ccccc2s1` [Example 474], the concentration for an effect of 90% (EC90) was less than 0.5 µM. Still for that read-out and setting: then `Cc1nc(NCc2cccnc2)nc(N[C@@H]2C[C@H](CO)[C@H]3OC(C)(C)O[C@H]32)c1-c1nc2ccccc2s1` [Example 463], with less than 0.5 µM. On the same count and under the same terms, as for `Cc1nc(NCc2cccnc2)nc(N[C@@H]2C[C@H](CO)[C@@H](O)[C@H]2O)c1-c1nc2ccccc2s1` [Example 466], the figure is less than 0.5 µM. The same measure, in the same setting: then `Cc1nc(NC(C)C)nc(N[C@@H]2C[C@H](CO)[C@@H](O)[C@H]2O)c1-c1nc2ccccc2s1` [Example 427], with less than 0.5 µM; and `CCc1cc2cc(-c3c(C)nc(NCc4ccco4)nc3N[C@@H]3C[C@H](CO)[C@H]4OC(C)(C)O[C@H]43)oc2cn1` [Example 704], with less than 0.5 µM.

As for `OC[C@H]1C[C@@H](Nc2nc(NC3CCNCC3)nc(Cl)c2-c2nc3ccccc3s2)[C@H](O)[C@@H]1O` [Example 510], the 90% effect concentration (EC90) is greater than 5 µM. The same measure, in the same setting: then `Cc1nc(N[C@@H](C)C(F)(F)F)nc(N[C@@H]2C[C@H](CO)[C@@H](O)[C@H]2O)c1-c1nc2ccccc2s1` [Example 132], with 0.5 to 5 µM. Still for that read-out and setting: as for `CCc1cc2cc(-c3c(C)nc(NCc4nccs4)nc3N[C@@H]3C[C@H](CO)[C@H]4OC(C)(C)O[C@H]43)oc2cn1` [Example 341], the figure is less than 0.5 µM. Same read-out and setting: then `OC[C@H]1C[C@@H](Nc2nc(NCC3CCCCC3)nc(Cl)c2-c2nc3ccccc3s2)[C@H](O)[C@@H]1O` [Example 322], with less than 0.5 µM. As for `Cc1nc(NCCN(C)C)nc(N[C@@H]2C[C@H](CO)[C@@H](O)[C@H]2O)c1-c1nc2ccccc2s1` [Example 246], the EC90 is greater than 5 µM. The same measure, in the same setting: then `OC[C@H]1C[C@@H](Nc2nc(NCC3CCOCC3)nc(Cl)c2-c2nc3ccccc3s2)[C@H](O)[C@@H]1O` [Example 447], with less than 0.5 µM. Consider `Cc1nc(NCc2ccccc2C(F)(F)F)nc(N[C@@H]2C[C@H](CO)[C@H]3OC(C)(C)O[C@H]32)c1-c1nc2ccccc2s1` [Example 236], for which the 90% effect concentration (EC90) was greater than 5 µM.

Still in this assay, the particulars now being: Hepatitis C virus, 72 h, HCV replicon cells, replicon RNA level by real time PCR (Taqman), day 3; calculated EC90; read-out: EC90 (μM) range.
Regarding `Cc1nc(NCCc2ccc(C(C)(C)C)cc2)nc(N[C@@H]2C[C@H](CO)[C@@H](O)[C@H]2O)c1-c1nc2cnccc2s1` [Example 2012], the 90% effect concentration (EC90) is less than 0.5 µM.

The assay is the same for the next values; noted with them: Hepatitis C virus, 72 h, HCV replicon cells, replicon RNA level by real time PCR (Taqman), harvested on day 3; calculated EC90 reported as range class; read-out: EC90 (μM) range.
With `Cc1nc(N[C@H](C)C(C)(C)C)nc(N[C@@H]2C[C@H](CO)[C@@H](O)[C@H]2O)c1-c1nc2cnccc2s1` [Example 1308], the EC90 is 0.5 to 5 µM.

Take `Cc1nc(NCC(C)(C)C)nc(N[C@@H]2C[C@H](CO)[C@@H](O)[C@H]2O)c1-c1nc2c(s1)CCN(C)C2` [Example 1321]: the EC90 is 0.5 to 5 µM. The same measure, in the same setting: as for `COCC(O)CNc1nc(C)c(-c2nc3ccccc3s2)c(N[C@@H]2C[C@H](CO)[C@@H](O)[C@H]2O)n1` (stereo partly drawn) [Example 1062], the figure is greater than 5 µM.

As to `CCOCCNc1nc(C)c(-c2nc3cnccc3s2)c(N[C@@H]2C[C@H](CO)[C@@H](O)[C@H]2O)n1` [Example 525], the 90% effect concentration (EC90) was less than 0.5 µM. On the same count and under the same terms, as for `COCCNc1nc(C)c(-c2nc3cnccc3s2)c(N[C@@H]2C[C@H](CO)[C@@H](O)[C@H]2O)n1` [Example 526], the figure is less than 0.5 µM.

Take `CCc1nccc2sc(-c3c(C)nc(NCC4CC4)nc3N[C@@H]3C[C@H](CO)[C@@H](O)[C@H]3O)nc12` [Example 1333]: the EC90 is less than 0.5 µM. Same read-out and setting: then `Cc1ccc([C@H](C)Nc2nc(C)c(-c3nc4cnccc4s3)c(N[C@@H]3C[C@H](CO)[C@@H](O)[C@H]3O)n2)cc1` [Example 1314], with 0.5 to 5 µM; and `CNC[C@H]1C[C@@H](Nc2nc(NCC(F)(F)F)nc(C)c2-c2nc3ccccc3s2)[C@H](O)[C@@H]1O` [Example 1071], with 0.5 to 5 µM.

Still in this assay, the particulars now being: Hepatitis C virus, 72 h, HCV replicon cells, replicon RNA level by real time PCR, harvested day 3; read-out: EC90 (μM) range.
For the compound `CCOc1cc2sc(-c3c(C)nc(N[C@H](C)c4ccc(C)cc4)nc3N[C@@H]3C[C@H](CO)[C@@H](O)[C@H]3O)nc2c(C)n1` [Example 1375], the EC90 was less than 0.5 µM. Same read-out and setting: then `Cc1nc(NCC(F)(F)F)nc(N[C@@H]2C[C@H](CN)[C@@H](O)[C@H]2O)c1-c1nc2ccccc2s1` [Example 1519], with 0.5 to 5 µM; and `Cc1nc(NCC2CC2)nc(N[C@@H]2C[C@H](C(C)O)[C@@H](O)[C@H]2O)c1-c1nc2cnccc2s1` (stereo partly drawn) [Example 1641], with less than 0.5 µM. On the same count and under the same terms, as for `CCN(C[C@@H]1C[C@@H](Nc2nc(NCC(F)(F)F)nc(C)c2-c2nc3ccccc3s2)[C@H](O)[C@@H]1O)S(C)(=O)=O` [Example 1393], the figure is 0.5 to 5 µM; as for `Cc1nc(NCc2cc3cn[nH]c3cc2F)nc(N[C@@H]2C[C@H](CO)[C@@H](O)[C@H]2O)c1-c1nc2cnccc2s1` [Example 1911], less than 0.5 µM. The same measure, in the same setting: then `Cc1nc(NCC(F)(F)F)nc(N[C@@H]2C[C@H](O)[C@@H](O)[C@H]2O)c1-c1nc2ccccc2s1` [Example 1366], with 0.5 to 5 µM; and `Cc1ccc([C@@H](C)Nc2nc(C)c(-c3nc4c(OCC5CC5)nccc4s3)c(N[C@@H]3C[C@H](CO)[C@@H](O)[C@H]3O)n2)cc1` [Example 1339], with less than 0.5 µM.

As to `Cc1nc(NCC2CC2)nc(N[C@H]2[C@H](O)CC[C@@H]2O)c1-c1nc2ccccc2s1` [Example 1627], the EC90 was greater than 5 µM.

Regarding `Cc1ccc([C@@H](C)Nc2nc(C)c(-c3nc4c(C)nccc4s3)c(N[C@@H]3C[C@H](CO)[C@@H](O)[C@H]3O)n2)cc1F` [Example 1358], the concentration for an effect of 90% (EC90) is less than 0.5 µM. Turning to `CCCc1nccc2sc(-c3c(C)nc(N[C@H](C)C4CC4)nc3N[C@@H]3C[C@H](CN(C)S(C)(=O)=O)[C@@H](O)[C@H]3O)nc12` [Example 1389], the EC90 is less than 0.5 µM. Still for that read-out and setting: as for `Cc1nc(NCC(F)(F)F)nc(N[C@@H]2C[C@H](CS(C)(=O)=O)[C@@H](O)[C@H]2O)c1-c1nc2cnccc2s1` [Example 1367], the figure is less than 0.5 µM.

In the case of `Cc1nc(NCc2c(F)cccc2F)nc(N[C@@H]2CC[C@@H](O)[C@@]2(C)O)c1-c1nc2cnccc2s1` [Example 1808], the concentration for an effect of 90% (EC90) was less than 0.5 µM. Still for that read-out and setting: then `Cc1nc(NCc2ccc(F)cc2F)nc(N[C@@H]2CC[C@@H](O)[C@@]2(C)O)c1-c1nc2cnccc2s1` [Example 1821], with less than 0.5 µM; and `Cc1nc(NCC(F)(F)F)nc(N[C@@H]2C[C@H](CN(CC3CC3)S(C)(=O)=O)[C@@H](O)[C@H]2O)c1-c1nc2ccccc2s1` [Example 1395], with less than 0.5 µM. Same read-out and setting: then `CC(=O)NC[C@H]1C[C@@H](Nc2nc(NCC(F)(F)F)nc(C)c2-c2nc3ccccc3s2)[C@H](O)[C@@H]1O` [Example 1506], with 0.5 to 5 µM.

`Cc1nc(NC2CC2)nc(N[C@@H]2C[C@H](CO)[C@@H](O)[C@H]2O)c1-c1nc2c(C3CC3)nccc2s1` [Example 1402]: the EC90 was less than 0.5 µM.
